Data taken from patent publication US20090093468A1, “Peptide Deformylase Inhibitors” (priority 2004, published 2009).
Like-named read-outs stand apart in the source and are kept apart here.

Columns and labels:
[1] = biological target: bacterial PDF (peptide deformylase), enzyme from E. coli (Escherichia coli, UniProt P0A6K3); assay: Bacterial peptide deformylase (PDF) assay, enzyme from E. coli; assay type: biochemical
Experimental: (§1) The IC50 value of a compound of the invention as a bacterial PDF inhibitor was determined using the following assay.
(§2) Assay buffer (pH 7.2): 0.1 M MOPS pH was adjusted to 7.2 with NaOH, containing 0.25 M NaCl, 100 microgram/mL catalase and 1 mg/mL BSA.
(§3) Enzyme mix: 670 ng/mL of enzyme (to finally have 50 ng of enzyme per well).
(§4) Substrate: 10 mM f-Met-Ala was made up from 200 mM f-Met-Ala in methanol with assay buffer.
(§5) TNBS solution: Freshly dilute 1 M TNBS stock solution to 1:10 with water.
(§6) Buffer C: 0.5 M borate buffer adjusted to pH 9.5 with NaOH.
(§7) Buffer D: 0.2 ml of freshly prepared 0.5 M Na2SO3 was mixed with 9.8 mL of 0.5M NaH2PO4.
(§8) Inhibitor solution: 2 mM Sodium 4-(hydroxymercurio) benzoate in assay buffer.
(§9) The assay was performed in a 96 Microtiter plate containing test compound. To each well containing test compound mix was added 75 microliter of enzyme mix from E. coli followed, by the addition of 25 microliter of substrate mix. The resulting mix was incubated for 30 minutes at room temperature with shaking. TNBS solution (50 microliter/well) was added and the resulting mixture was incubated for 15 minutes under shaking. Buffer C was then added (20 microliter/well). After incubating at room temperature for 15 minutes under shaking, buffer D was added (50 microliter/well). The optical […] was then measured at 420 nm, thereby determining the IC50 value.

[2] = biological target: T1, bacterial PDF (peptide deformylase), enzyme from S. aureus (Staphylococcus aureus, UniProt P68826); assay: Bacterial peptide deformylase (PDF) assay, enzyme from S. aureus; assay type: biochemical
T1 sequence (P68826 1-183): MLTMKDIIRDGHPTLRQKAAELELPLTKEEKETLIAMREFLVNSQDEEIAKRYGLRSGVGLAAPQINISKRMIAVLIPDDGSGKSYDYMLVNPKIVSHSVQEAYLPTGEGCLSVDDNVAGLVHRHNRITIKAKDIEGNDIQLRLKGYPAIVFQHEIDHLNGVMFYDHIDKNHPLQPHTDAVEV
Experimental: as §1, §2, §3, §4, §5, §6, §7, §8, §9
The assay was repeated using enzyme mix from S. aureus.

[3] = PDF enzyme from S. aureus, substrate f-Met-Ala, TNBS readout at 420 nm, read-out: IC50 (enzyme from S. aureus)

bacterial PDF (peptide deformylase), enzyme from E. coli, sequence (P0A6K3 whole entry): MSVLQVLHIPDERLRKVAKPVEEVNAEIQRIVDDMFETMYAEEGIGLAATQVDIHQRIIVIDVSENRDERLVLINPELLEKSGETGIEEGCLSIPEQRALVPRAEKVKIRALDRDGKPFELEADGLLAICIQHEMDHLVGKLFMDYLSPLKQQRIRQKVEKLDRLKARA

CCN1CC(CC(=O)NO)S(=O)(=O)c2ccc(C(=O)N3CCN(C)CC3)cc21 (stereo not shown) [Example 32, 2-[4-Ethyl-6-(4-methyl-piperazine-1-carbonyl)-1,1-dioxo-1,2,3,4-tetrahydro-1λ^6-benzo[1,4]thiazin-2-yl]-N-hydroxy-acetamide]
IC50 [1]: > 200 µM
IC50 [2, 3]: 128 µM

CCN1CC(CC(=O)NO)S(=O)(=O)c2ccc(C(=O)NCc3ccc(OC)cc3)cc21 (stereo not shown) [Example 23, 4-Ethyl-2-hydroxycarbamoylmethyl-1,1-dioxo-1,2,3,4-tetrahydro-1λ^6-benzo[1,4]thiazine-6-carboxylic acid 4-methoxy-benzylamide]
IC50 [1]: 4.9 µM
IC50 [2, 3]: 13.1 µM

O=C(CC1CN(CC2CCCCC2)c2ccccc2S1(=O)=O)NO (stereo not shown) [Example 38, 2-(4-Cyclohexylmethyl-1,1-dioxo-1,2,3,4-tetrahydro-1λ^6-benzo[1,4]thiazin-2-yl)-N-hydroxy-acetamide]
IC50 [1]: 33.2 µM
IC50 [2, 3]: 18.1 µM

CCN1CC(CC(=O)NO)S(=O)(=O)c2ccc(C(=O)Nc3nccs3)cc21 (stereo not shown) [Example 31, 4-Ethyl-2-hydroxycarbamoylmethyl-1,1-dioxo-1,2,3,4-tetrahydro-1λ^6-benzo[1,4]thiazine-6-carboxylic acid thiazol-2-ylamide]
IC50 [1]: 12.3 µM
IC50 [2, 3]: 20.8 µM

O=C(CC1CN(Cc2cccc(F)c2)c2ccccc2S1(=O)=O)NO (stereo not shown) [Example 10, 2-[4-(3-Fluoro-benzyl)-1,1-dioxo-1,2,3,4-tetrahydro-1λ^6-benzo[1,4]thiazin-2-yl]-N-hydroxy-acetamide]
IC50 [1]: 27.7 µM
IC50 [2, 3]: 28.4 µM

CCN1CC(CC(=O)NO)S(=O)(=O)c2ccc(C(=O)NC3CC4CCC(C3)N4C)cc21 (stereo not shown) [Example 34]
IC50 ([1]; PDF enzyme from E. coli, substrate f-Met-Ala, TNBS readout at 420 nm, read-out: IC50 (enzyme from E. coli)): 13.8 µM
IC50 [2]: 6 µM

CCCN1CC(CC(=O)NO)S(=O)(=O)c2ccccc21 (stereo not shown) [Example 6, 2-(1,1-Dioxo-4-propyl-1,2,3,4-tetrahydro-1λ^6-benzo[1,4]thiazin-2-yl)-N-hydroxy-acetamide]
IC50 [1]: 1.6 µM
IC50 [2, 3]: 1.9 µM

CCN1CC(CC(=O)NO)S(=O)(=O)c2ccc(C(=O)NCc3ccccc3OC)cc21 (stereo not shown) [Example 21, 4-Ethyl-2-hydroxycarbamoylmethyl-1,1-dioxo-1,2,3,4-tetrahydro-1λ^6-benzo[1,4]thiazine-6-carboxylic acid 2-methoxy-benzylamide]
IC50 [1]: 1.5 µM
IC50 [2, 3]: 1.5 µM

CCN1CC(CC(=O)NO)S(=O)(=O)c2ccc(C(=O)NCc3ccccc3)cc21 (stereo not shown) [Example 11, 4-Ethyl-2-hydroxycarbamoylmethyl-1,1-dioxo-1,2,3,4-tetrahydro-1λ^6-benzo[1,4]thiazine-6-carboxylic acid benzylamide]
IC50 [1]: 17.6 µM
IC50 [2, 3]: 8.9 µM

CCN1CC(CC(=O)NO)S(=O)(=O)c2ccc(C(=O)NCc3ccc(N(C)C)cc3)cc21 (stereo not shown) [Example 27, 4-Ethyl-2-hydroxycarbamoylmethyl-1,1-dioxo-1,2,3,4-tetrahydro-1λ^6-benzo[1,4]thiazine-6-carboxylic acid 4-dimethylaminobenzylamide]
IC50 [1]: 9.3 µM
IC50 [2, 3]: 18.2 µM

CCN1CC(CC(=O)NO)S(=O)(=O)c2ccc(C(=O)NCc3cccs3)cc21 (stereo not shown) [Example 29, 4-Ethyl-2-hydroxycarbamoylmethyl-1,1-dioxo-1,2,3,4-tetrahydro-1λ^6-benzo[1,4]thiazine-6-carboxylic acid (thiophen-2-ylmethyl)-amide]
IC50 [1]: 9.5 µM
IC50 [2, 3]: 3.4 µM

CCCN1CC(CC(=O)NO)Sc2ccccc21 (stereo not shown) [Example 5, N-Hydroxy-2-(4-propyl-3,4-dihydro-2H-benzo[1,4]thiazin-2-yl)-acetamide]
IC50 [1]: 7 µM
IC50 [2, 3]: 8.5 µM

CCN1CC(CC(=O)NO)S(=O)(=O)c2ccc(C(=O)NCc3ccncc3)cc21 (stereo not shown) [Example 28, 4-Ethyl-2-hydroxycarbamoylmethyl-1,1-dioxo-1,2,3,4-tetrahydro-1λ^6-benzo[1,4]thiazine-6-carboxylic acid (pyridin-4-ylmethyl)-amide]
IC50 [1]: > 200 µM
IC50 [2, 3]: 70.5 µM

CCN1CC(CC(=O)NO)S(=O)(=O)c2ccc(C(=O)NCc3ccc(Br)cc3)cc21 (stereo not shown) [Example 17, 4-Ethyl-2-hydroxycarbamoylmethyl-1,1-dioxo-1,2,3,4-tetrahydro-1λ^6-benzo[1,4]-thiazine-6-carboxylic acid 4-bromo-benzylamide]
IC50 [1]: 1.5 µM
IC50 [2, 3]: 3.4 µM
